Source: patent US7132443B2, “Fluoropyrrolidines as dipeptidyl peptidase inhibitors” (SmithKlineBeecham Corporation, priority 2001, dated 2006)
Where a name gives a salt, the structure may show the parent alone. Read-outs that look alike come from different tables or passages of the source. One block for each compound: values may come before it.

Legend:
human DPP-IV = molecular target: T1, human DPP-IV (Homo sapiens, UniProt P27487); assay: DPP-IV assay (H-Ala-Pro-pNA hydrolysis, absorbance); format: biochemical
T1 construct: The material was isolated from human prostasomes using the method of DeMeester et al; purchased Athens Research and Technology, Inc; host or cells: human prostasomes (natural source)
Experimental: A 500 mM stock solution was prepared with dimethylsulfoxide and stored at −20° C. Gly-Pro-AMC was purchased from Enzyme System Products (product no. AMC-39) and stored at −20° C. as a 10 mM stock solution in dimethylsulfoxide. Test compounds were dissolved to 10 mM in dimethylsulfoxide and this was used as a stock solution for DPP-IV titration assays. Athens Research and Technology, Inc prepared the purified human DPP-IV. The material was isolated from human prostasomes using the method of DeMeester et al., J. Immunol.
The average enzymatic activity from wells containing dimethylsulfoxide but lacking test compound was used as a control value for calculating percent inhibition. DPP-IV (20 ng/mL) was mixed in microtiter plates with test compounds, substrate and assay buffer to yield 100 μM H-Ala-Pro-pNA•HCl in 25 mM Tris, pH 7.5, 10 mM KCl, 140 mM NaCl. The intact peptide contains a p-nitrophenylanilide which, when hydrolyzed by DPP-IV, releases the absorbant p-nitrophenylaniline. […] The enzymatic activity was determined by estimating the best linear fit to the data. Values for enzymatic activity were taken directly from the linear fit determined by the software on the plate reader.
Data Analysis: The enzymatic activity was determined by estimating the best linear fit to the data. Data reduction was performed using the Microsoft Excel RoboSage.
Determination of Ki values: Ki values were calculated from IC50 values using equation 3 assuming a competitive model.

DPP-IV activity in serum [1] = molecular target: T2, DPP-IV activity in serum (Rattus norvegicus, UniProt P14740); assay: DPP-IV activity in serum of rats 6 hrs after oral dosing; format: in vivo; conditions: for inhibition at 1 mg/kg: rat, read-out: Percent DPP-IV inhibition At 6 hrs In Rats; for duration of action: rats, 6 hrs after 1 mg/kg oral
T2 construct: from tissue; host or cells: serum/plasma of male CD rats dosed orally
Experimental: Age and weight matched male CD rats were housed individually at 72° F. and 50% relative humidity with a 12 h light/dark cycle. Animals were dosed by oral gavage with vehicle (10 mM acetic acid) or 1 mg/kg test compound in vehicle. After 6 hrs administration of compound, the rats were anesthetized with isofluorane for cardiac blood collection. DPP-IV activity in serum was measured using the fluorogenic substrate Gly-Pro-AMC (50 mM) according to the manufacturers specification (Enzyme System Products, Livermore Calif.). The substrate was mixed with 50 mM Tris, pH 7.8, in plasma (20% final v/v) and the samples were incubated for 5–20 min at 30° C. DPP-IV activity was determined by measuring fluorescence using a cytofluor spectrofluoremeter with the filters set at 360 nm excitation and 460 nm emission. Averages and standard deviations from each group (n=3) were calculated using students t-test and compared to vehicle treated rats to determine percent inhibition as shown in Table 1.

[2] = Stability studies in Phosphate Buffered Saline by HPLC (cyclization/degradation half-life); conditions: PBS; for half-life: Phosphate Buffered Saline
From the text: (§1) An initial time point HPLC chromatogram is obtained followed by successive HPLC chromatograms at time points of 24, 48, 72, etc hours.
(§2) The area under the drug substance peak is compared to the initial area for each chromatogram and plotted as percent remaining from initial time (t0).

DPP-IV activity in serum [3] = molecular target: T3, DPP-IV activity in serum (Canis lupus familiaris, UniProt A0A8I3Q2I8); assay: DPP-IV activity in serum of dogs after oral dosing; format: in vivo; conditions: dog, read-out: inhibited DPP4 12 hours after oral dosing
T3 construct: The substrate was mixed with 50 mM Tris, pH 7.8, in serum (20% final v/v); from tissue; host or cells: serum of beagle dogs dosed orally

dogs = assay: Dose escalation studies in dogs, limiting gastrointestinal toxicity; format: in vivo
Experimental: The dog is a common non-rodent species routinely used to satisfy regulatory requirements. The beagle was chosen to examine the safety of the compounds of the present invention because of the knowledge of this strain's general pathology and response to a wide variety of drugs. Dogs (Marshall Farms Inc., North Rose, N.Y., USA) from 9 to 12 months (5 to 12 kg) were dosed by oral gavage at 10 mL/kg/day with vehicle (10 mM acetic acid, pH 3.3) or test compound in vehicle. Each dose was followed by a flush of approximately 10 mL of water, once daily with 24–48 hours between each subsequent dose. If limiting gastrointestinal toxicity was not observed, the dose was increased 3-fold no sooner than approximately 24 hours after the preceding dose. Limiting GI toxicity includes diarrhea, loose or mucoid feces, blood in stool, and/or sloughing of the gut epithelium. Clinical observations were made at least three times daily during treatment (once prior to dosing, approximately one hour post dose, and once in conjunction with pm viability). DPP-IV activity in serum was measured using the fluorogenic substrate Gly-Pro-AMC (50 mM) according to the manufacturers specification (Enzyme System Products, Livermore Calif.). […] DPP-IV activity was determined by measuring fluorescence using a cytofluor spectrofluoremeter with the filters set at 360 nm excitation and 460 nm emission.

physchem = conditions: buffer, t1/2 at 37° C.
From the text: as §1, §2

[4] = Table I, read-out: IC50 (nM) Human DPP-IV
[5] = human DPP-IV, text b860, read-out: IC50 values

T2 sequence (P14740 37-767 limits assumed): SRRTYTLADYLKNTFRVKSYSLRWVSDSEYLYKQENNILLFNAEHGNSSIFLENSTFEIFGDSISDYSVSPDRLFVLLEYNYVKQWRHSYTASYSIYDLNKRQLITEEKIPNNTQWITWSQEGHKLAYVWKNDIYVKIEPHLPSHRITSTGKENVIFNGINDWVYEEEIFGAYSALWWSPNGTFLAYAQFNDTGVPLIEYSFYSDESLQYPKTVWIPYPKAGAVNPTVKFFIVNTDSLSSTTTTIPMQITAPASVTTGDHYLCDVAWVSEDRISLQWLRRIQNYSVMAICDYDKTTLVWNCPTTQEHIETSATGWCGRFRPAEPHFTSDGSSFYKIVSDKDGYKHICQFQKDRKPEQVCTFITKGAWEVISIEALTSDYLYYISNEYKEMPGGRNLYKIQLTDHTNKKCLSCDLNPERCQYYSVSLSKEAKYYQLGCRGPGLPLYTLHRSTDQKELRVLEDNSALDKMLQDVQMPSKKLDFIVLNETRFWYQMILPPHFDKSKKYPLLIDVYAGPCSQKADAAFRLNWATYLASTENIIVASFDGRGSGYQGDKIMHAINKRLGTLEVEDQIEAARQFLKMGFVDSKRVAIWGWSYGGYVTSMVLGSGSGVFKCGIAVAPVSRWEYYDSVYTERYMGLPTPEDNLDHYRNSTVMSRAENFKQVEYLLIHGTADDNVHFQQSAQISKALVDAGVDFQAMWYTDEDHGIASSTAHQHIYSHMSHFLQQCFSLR
T1 sequence (P27487 whole entry): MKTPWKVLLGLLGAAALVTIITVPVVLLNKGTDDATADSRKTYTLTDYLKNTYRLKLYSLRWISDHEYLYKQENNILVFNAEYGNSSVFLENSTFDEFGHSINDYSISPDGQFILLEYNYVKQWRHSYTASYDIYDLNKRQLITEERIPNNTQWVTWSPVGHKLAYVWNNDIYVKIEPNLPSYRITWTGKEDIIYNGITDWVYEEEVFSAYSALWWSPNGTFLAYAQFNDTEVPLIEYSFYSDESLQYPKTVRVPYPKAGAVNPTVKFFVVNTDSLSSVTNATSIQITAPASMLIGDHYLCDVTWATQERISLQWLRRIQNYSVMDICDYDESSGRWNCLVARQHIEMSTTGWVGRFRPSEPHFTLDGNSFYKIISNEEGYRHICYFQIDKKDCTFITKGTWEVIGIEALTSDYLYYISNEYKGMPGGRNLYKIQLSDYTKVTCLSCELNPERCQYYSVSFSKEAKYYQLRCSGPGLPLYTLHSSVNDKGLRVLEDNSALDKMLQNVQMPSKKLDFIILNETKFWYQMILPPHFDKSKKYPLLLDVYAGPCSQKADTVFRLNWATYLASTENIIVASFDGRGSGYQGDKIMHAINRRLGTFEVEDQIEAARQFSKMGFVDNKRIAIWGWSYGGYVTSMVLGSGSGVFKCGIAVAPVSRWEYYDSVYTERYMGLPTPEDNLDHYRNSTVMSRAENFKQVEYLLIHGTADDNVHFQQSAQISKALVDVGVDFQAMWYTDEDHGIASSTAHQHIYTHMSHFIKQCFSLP
T3 sequence (A0A8I3Q2I8 1-765): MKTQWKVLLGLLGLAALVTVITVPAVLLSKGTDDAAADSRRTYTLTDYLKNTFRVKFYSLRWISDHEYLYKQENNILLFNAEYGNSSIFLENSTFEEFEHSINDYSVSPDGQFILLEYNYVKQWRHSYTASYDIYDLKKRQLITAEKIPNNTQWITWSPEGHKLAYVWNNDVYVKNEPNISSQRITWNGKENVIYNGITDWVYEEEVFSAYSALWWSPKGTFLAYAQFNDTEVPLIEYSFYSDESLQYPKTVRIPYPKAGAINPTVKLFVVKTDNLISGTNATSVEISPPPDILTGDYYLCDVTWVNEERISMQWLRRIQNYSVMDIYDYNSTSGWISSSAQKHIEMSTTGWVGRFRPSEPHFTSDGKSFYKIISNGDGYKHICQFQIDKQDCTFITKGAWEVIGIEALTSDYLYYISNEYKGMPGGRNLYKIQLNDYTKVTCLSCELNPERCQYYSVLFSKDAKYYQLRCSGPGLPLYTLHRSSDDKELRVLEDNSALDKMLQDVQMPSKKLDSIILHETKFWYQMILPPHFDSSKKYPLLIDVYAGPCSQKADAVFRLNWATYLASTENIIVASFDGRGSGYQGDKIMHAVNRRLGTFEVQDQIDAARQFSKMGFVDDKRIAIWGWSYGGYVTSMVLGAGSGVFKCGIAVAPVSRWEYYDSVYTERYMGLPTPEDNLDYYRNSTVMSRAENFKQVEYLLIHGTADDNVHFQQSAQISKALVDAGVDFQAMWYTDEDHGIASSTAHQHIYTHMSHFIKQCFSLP

Structure (SMILES): CC(C)[C@H](N)C(=O)N1C[C@@H](F)C[C@H]1C#N [Comparison Example 1]
IC50 (human DPP-IV; [4]): 1.3 nM | IC50 (human DPP-IV; [5]): < 5.6 nM | inhibition at 1 mg/kg (DPP-IV activity in serum [1]; po): 32 ± 3% | duration of action (DPP-IV activity in serum [1]): poor level of duration

Structure (SMILES): N#C[C@@H]1C[C@H](F)CN1C(=O)[C@@H](N)CCC(=O)O [Comparison Example 2]
IC50 (human DPP-IV; [4]): 3 nM | IC50 (human DPP-IV; [5]): < 5.6 nM | inhibition at 1 mg/kg (DPP-IV activity in serum [1]; po): 32 ± 3% | duration of action (DPP-IV activity in serum [1]): poor level of duration

half-life ([2]; t1/2 at 23° C., ambient room temperature 23° C.): 47 h | half-life ([2]; t1/2 at 37° C. (calc.), calculated for 37° C. from value measured at 23° C.): 23 h
Structure (SMILES): CC[C@H](C)[C@H](N)C(=O)N1C[C@@H](F)C[C@H]1C#N [Comparison Example 3]

Structure (SMILES): CC(C)(C)[C@H](N)C(=O)N1C[C@@H](F)C[C@H]1C#N [Comparison Example 5]
inhibition at 0.2 mg/kg (DPP-IV activity in serum [3]; po): 2% | IC50 (human DPP-IV; [4]): 3 nM | inhibition at 1 mg/kg (DPP-IV activity in serum [1]; po): 71 ± 13% | gastrointestinal toxicity, dose escalation in dogs (dogs; 0.3 mg/kg oral gavage): loose/mucoid feces with traces of blood

Structure (SMILES): N#C[C@@H]1CCCN1C(=O)[C@@H](N)C(c1ccc(F)cc1)c1ccc(F)cc1 [Comparison Example 6]
% DPP-IV Inhibition @ 6 Hrs. In Rats (DPP-IV activity in serum [1]; Table 3, rats, 6 Hrs.): 15 ± 1%

Structure (SMILES): N#C[C@@H]1C[C@H](F)CN1C(=O)[C@@H](N)C(c1ccc(F)cc1)c1ccc(F)cc1 [Example 2, (2S,4S)-1-[(2S)-2-Amino-3,3-bis(4-fluorophenyl)propanoyl]-4-fluoropyrrolidine-2-carbonitrile hydrochloride]
inhibition at 0.5 mg/kg (DPP-IV activity in serum [3]; dogs, 0.5 mg/kg oral, 12 hours, serum): 45% | half-life (physchem): 266 h | inhibition at 1 mg/kg (DPP-IV activity in serum [1]; 1 mg/kg oral gavage, male CD rats, serum, 6 hrs, vs vehicle): 68 ± 4% | gastrointestinal toxicity, dose escalation in dogs (dogs; dog, in vivo): no adverse affects on gastrointestinal toxicity

Structure (SMILES): COc1ccc(CS(=O)(=O)C(C)(C)[C@H](N)C(=O)N2C[C@@H](F)C[C@H]2C#N)cc1 [Example 9, (2S,4S)-1-{(2R)-2-Amino-3-[(4-methoxybenzyl)sulfonyl]-3-methylbutanoyl}-4-fluoropyrrolidine-2-carbonitrile hydrochloride]
t1/2 at 37° C. ([2]; 37° C.): 1733 h
